biological target: T1, human GLP-1R (Homo sapiens, UniProt P43220); test: GLP-1R cAMP assay (Example B1a, HTRF, 30 min at room temperature); assay type: cell-based; details: cAMP accumulation in HEK293 expressing human GLP-1R, no BETP, 30 min room temperature (Method B1a, compounds ID 1-609), Table 1; read-out: EC50
T1 construct: host or cells: HEK293
Outline: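 Competitive HTRF read-out of cAMP after 30 min room-temperature stimulation, BETP absent, of human GLP-1R-HEK293 cells (1,000/well) in HEPES buffer with 500 μM IBMX and 0.1% BSA. Activation normalised to GLP-1(7-37) positive control. EC50 from 4-parameter non-linear regression.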

T1 sequence (P43220 24-463): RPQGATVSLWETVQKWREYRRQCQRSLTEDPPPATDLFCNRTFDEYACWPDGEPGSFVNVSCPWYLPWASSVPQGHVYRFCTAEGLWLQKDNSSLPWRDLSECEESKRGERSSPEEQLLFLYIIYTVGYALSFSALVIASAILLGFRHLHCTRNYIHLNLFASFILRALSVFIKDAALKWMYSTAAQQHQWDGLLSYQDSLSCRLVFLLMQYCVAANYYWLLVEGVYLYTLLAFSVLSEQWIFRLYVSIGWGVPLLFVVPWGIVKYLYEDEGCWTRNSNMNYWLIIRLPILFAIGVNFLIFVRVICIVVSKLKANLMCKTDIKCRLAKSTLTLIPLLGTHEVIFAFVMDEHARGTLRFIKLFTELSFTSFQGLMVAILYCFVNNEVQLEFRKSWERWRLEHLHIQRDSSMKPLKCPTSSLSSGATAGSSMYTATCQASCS

Structure (SMILES)	EC50
Cc1cc(-n2nc3c(c2-n2ccn(-c4ccc5c(cnn5C)c4F)c2=O)[C@@H]2CCC[C@H](C3)N2S(=O)(=O)c2cc3cc([C@H]4CCOC5(CC5)C4)ccc3n2[C@]2(c3noc(=O)[nH]3)C[C@@H]2C)cc(C)c1F [Compound 609, 3-[(1R,2S)-1-[2-[[(1S,8R)-4-(4-fluoro-3,5-dimethyl-phenyl)-3-[3-(4-fluoro-1-methyl-indazol-5-yl)-2-oxo-imidazol-1-yl]-4,5,12-triazatricyclo[6.3.1.02,6]dodeca-2,5-dien-12-yl]sulfonyl]-5-[(7S)-4-oxaspiro [2.5]octan-7-yl]indol-1-yl]-2-methyl-cyclopropyl]-4H-1,2,4-oxadiazol-5-one]	≥ 10000 nM
CCP(=O)(CC)c1ccc(-n2ccn(-c3c4c(nn3-c3cc(C)c(F)c(C)c3)C[C@H]3CC[C@@H]4N3C(=O)c3cc4cc([C@H]5CCOC(C)(C)C5)ccc4n3[C@@]3(c4noc(=O)[nH]4)C[C@@H]3C)c2=O)cc1NC [Compound 203, 3-[(1S,2S)-1-[2-[(1S,8R)-3-[3-[4-diethylphosphoryl-3-(methylamino)phenyl]-2-oxo-imidazol-1-yl]-4-(4-fluoro-3,5-dimethyl-phenyl)-4,5,11-triazatricyclo[6.2.1.02,6]undeca-2,5-diene-11-carbonyl]-5-[(4S)-2,2-dimethyltetrahydropyran-4-yl]indol-1-yl]-2-methyl-cyclopropyl]-4H-1,2,4-oxadiazol-5-one]	919 nM
Cc1cc(-n2nc3c(c2-n2ccn(-c4ccc5c(cnn5C)c4F)c2=O)[C@@H]2CC[C@H](C3)N2C(=O)c2cc3cc([C@H]4CCOC(C)(C)C4)ccc3n2[C@@]2(C(N)=O)C[C@@H]2C)cc(C)c1F [Compound 138, cis-(1S,2S)-1-[5-[(4S)-2,2-dimethyltetrahydropyran-4-yl]-2-[(1S,8R)-4-(4-fluoro-3,5-dimethyl-phenyl)-3-[3-(4-fluoro-1-methyl-indazol-5-yl)-2-oxo-imidazol-1-yl]-4,5,11-triazatricyclo[6.2.1.02,6]undeca-2,5-diene-11-carbonyl]indol-1-yl]-2-methyl-cyclopropanecarboxamide]	1050 nM
Cc1cc(-n2nc3c(c2-n2ccn(-c4ccc5c(cnn5C)c4F)c2=O)[C@@H]2CC[C@H](C3)N2C(=O)c2cc3nc(C4CCOC(C)(C)C4)sc3n2[C@@]2(c3noc(=O)[nH]3)C[C@@H]2C)cc(C)c1F (stereo partly drawn) [Compound 139, 3-[(1S,2S)-1-[2-(2,2-dimethyltetrahydropyran-4-yl)-5-[(1S,8R)-4-(4-fluoro-3,5-dimethyl-phenyl)-3-[3-(4-fluoro-1-methyl-indazol-5-yl)-2-oxo-imidazol-1-yl]-4,5,11-triazatricyclo[6.2.1.02,6]undeca-2,5-diene-11-carbonyl]pyrrolo[3,2-d]thiazol-4-yl]-2-methyl-cyclopropyl]-4H-1,2,4-oxadiazol-5-one]	3110 nM
Cc1cc(-n2nc3c(c2-n2ccn(-c4ccc5c(cnn5C)c4F)c2=O)CN(S(=O)(=O)c2cc4cc(C5CCOC(C)(C)C5)ccc4n2[C@@]2(c4noc(=O)[nH]4)C[C@@H]2C)CCC3)cc(C)c1F (stereo partly drawn) [Compound 508, 3-[(1S,2S)-1-[5-(2,2-dimethyltetrahydropyran-4-yl)-2-[[2-(4-fluoro-3,5-dimethyl-phenyl)-3-[3-(4-fluoro-1-methyl-indazol-5-yl)-2-oxo-imidazol-1-yl]-4,6,7,8-tetrahydropyrazolo[4,3-c]azepin-5-yl]sulfonyl]indol-1-yl]-2-methyl-cyclopropyl]-4H-1,2,4-oxadiazol-5-one]	≥ 10000 nM
Cc1cc(-n2nc3c(c2-c2nnc(-c4ccc5c(cnn5C)c4F)o2)[C@H](C)N(C(=O)c2cc4cc([C@H]5CCOC(C)(C)C5)ccc4n2[C@@]2(c4noc(=O)[nH]4)C[C@@H]2C)CC3)cc(C)c1F [Compound 5, 3-((1S,2S)-1-(5-((S)-2,2-dimethyltetrahydro-2H-pyran-4-yl)-2-((S)-3-(5-(4-fluoro-1-methyl-1H-indazol-5-yl)-1,3,4-oxadiazol-2-yl)-2-(4-fluoro-3,5-dimethylphenyl)-4-methyl-4,5,6,7-tetrahydro-2H-pyrazolo[4,3-c]pyridine-5-carbonyl)-1H-indol-1-yl)-2-methylcyclopropyl)-1,2,4-oxadiazol-5 (4H)-one]	> 10000 nM
Cc1cc(-n2nc3c(c2-n2ccn(-c4ccc5c(cnn5C)c4F)c2=O)[C@@H]2CC[C@H](C3)N2C(=O)c2cc3cn(C4CCOC(C)(C)C4)c(=O)cc3n2[C@@]2(c3noc(=O)[nH]3)C[C@@H]2C)cc(C)c1F (stereo partly drawn) [Compound 324, 3-[(1S,2S)-1-[5-(2,2-dimethyltetrahydropyran-4-yl)-2-[(1S,8R)-4-(4-fluoro-3,5-dimethyl-phenyl)-3-[3-(4-fluoro-1-methyl-indazol-5-yl)-2-oxo-imidazol-1-yl]-4,5,11-triazatricyclo[6.2.1.02,6]undeca-2,5-diene-11-carbonyl]-6-oxo-pyrrolo[3,2-c]pyridin-1-yl]-2-methyl-cyclopropyl]-4H-1,2,4-oxadiazol-5-one]	264 nM

Results, then the compound that gave them:

EC50	Structure (SMILES)
> 10000 nM	Cc1cc(-n2nc3c(c2N2CCN(c4ccc5c(cnn5C)c4F)C(=O)C2=O)[C@H](C)N(C(=O)c2cc4cc([C@H]5CCOC(C)(C)C5)ccc4n2[C@@]2(c4noc(=O)[nH]4)C[C@@H]2C)CC3)cc(C)c1F [Compound 28, 1-((S)-5-(5-((S)-2,2-dimethyltetrahydro-2H-pyran-4-yl)-1-((1S,2S)-2-methyl-1-(5-oxo-4,5-dihydro-1,2,4-oxadiazol-3-yl)cyclopropyl)-1H-indole-2-carbonyl)-2-(4-fluoro-3,5-dimethylphenyl)-4-methyl-4,5,6,7-tetrahydro-2H-pyrazolo[4,3-c]pyridin-3-yl)-4-(4-fluoro-1-methyl-1H-indazol-5-yl) piperazine-2,3-dione]
469 nM	Cc1cc(-n2nc3c(c2-n2ccn(-c4ccc5c(cnn5C)c4F)c2=O)[C@@H]2CC[C@H](C3)N2C(=O)c2cc3ccc([C@@H]4CCOC(C)(C)C4)cc3nc2[C@@]2(c3noc(=O)[nH]3)C[C@@H]2C)cc(C)c1F [Compound 319, 3-[(1R,2S)-1-[7-[(4R)-2,2-dimethyltetrahydropyran-4-yl]-3-[(1S,8R)-4-(4-fluoro-3,5-dimethyl-phenyl)-3-[3-(4-fluoro-1-methyl-indazol-5-yl)-2-oxo-imidazol-1-yl]-4,5,11-triazatricyclo[6.2.1.02,6]undeca-2,5-diene-11-carbonyl]-2-quinolyl]-2-methyl-cyclopropyl]-4H-1,2,4-oxadiazol-5-one]
≥ 10000 nM	CNC(=O)Cc1ccc(-n2ccn(-c3c4c(nn3-c3cc(C)c(F)c(C)c3)C[C@H]3CCC[C@@H]4N3C(=O)c3cc4cc([C@H]5CCOC(C)(C)C5)ccc4n3[C@@]3(c4noc(=O)[nH]4)C[C@@H]3C)c2=O)cc1 [Compound 544, 2-[4-[3-[(1S,8R)-12-[5-[(4S)-2,2-dimethyltetrahydropyran-4-yl]-1-[(1S,2S)-2-methyl-1-(5-oxo-4H-1,2,4-oxadiazol-3-yl)cyclopropyl]indole-2-carbonyl]-4-(4-luoro-3,5-dimethyl-phenyl)-f4,5,12-triazatricyclo[6.3.1.02,6]dodeca-2,5-dien-3-yl]-2-oxo-imidazol-1-yl]phenyl]-N-methyl-acetamide]
